Test results as given in patent US20220395464A1, “ORALLY ADMINISTERED SOLID DOSAGE FORM DRUG” (ASCENTAWITS PHARMACEUTICALS, LTD., priority 2019, published 2022).
Converted amounts (≈) assume the structure as drawn. “Also recorded” adds a separate entry of the source. Where two headings read alike, the source gives them in different places.

How the values were obtained:
Assay type in all cases: physicochemical
[1] = Solubility study of AST-3424 (shaking at 25° C., HPLC content); conditions: methanol, propanol, butanol, ethylene glycol, propylene glycol, glycerol, 1,3-butanediol, 1,2-butanediol; initial investigation
[2] = Solution stability study of AST-3424 in different solutions (HPLC content); conditions: for Time the API is stable in solution / Content: room temperature
Procedure: 1.3 Solution Stability Study
About 107.32 mg of AST-3424 (50% v/v, ethanol) was taken and placed in a 50 ml-measuring flask. Then, solvents which are an organic solvent, buffer solution or purified water, were respectively added to a scale mark. At each appointed time, 1 ml of samples was measured for HPLC analysis respectively. If the API was stable in the solution with the different pH values, a sampling appointed time was extended, for instance 5 days or more.
(§1) In the solubility study, for a determination of sample contents, 1 ml of culture medium were measured respectively, and then centrifuged at 1000 rpm for 10 minutes. Subnatant after centrifugation were collected respectively for HPLC analysis. In the solution stability study, the samples may be provided directly for HPLC analysis.
(§2) The contents were determined by a HPLC method: AST-3424 was used as an external standard for quantification.
A wavelength of UVDAD detector was 230 nm. C18 column was used at a temperature of 25° C.

[3] = Solubility study of AST-3424 (shaking at 25° C., HPLC content); conditions: for solubility / solubility at 1 h / solubility at 4 h / solubility at 8 h / solubility at 24 h / solubility at 48 h: thermodynamic from solid; for solubility at 1 h / solubility at 4 h / solubility at 8 h / solubility at 24 h / solubility at 48 h: read-out: Content (solubility test)
Procedure: An appropriate amount of AST-3424 (hereinafter called active pharmaceutical ingredients or API) was taken and placed in a suitable container containing 40 ml of the mentioned-above solutions (20 ml for organic solvents) respectively until excess oil droplets of AST-3424 existed in the solution.
Samples were put in a constant temperature shaking incubator at 25° C. and shaken at a proper speed (100 rpm). The samples were taken and checked pH values at each appointed time as specified in Table 1. Then, the samples were centrifuged (1000 rpm, 10 minutes), and added the corresponding solution or organic solvent (to dissolve the API for solubility study) to dilute to an appropriate concentration for HPLC analysis, so as to obtain solubility data. It should be noted that the dilution ratio after test was accurately recorded.
as §1, §2
According to the solution stability results, AST-3424 is very unstable in the acetate buffer of pH 4.5. Therefore, the phosphate buffer of pH 6.8, the phosphate buffer of pH 7.4, the alkaline borate buffer of pH 10.0, and the purified water were selected for the solubility study. An appropriate amount of AST-3424 was weighed and placed in 40 ml of medium (8 ml ethanol/propylene glycol (50:50, v/v) was used), until excess flocci was present in the solution.

[4] = alkaline borate buffer, 25 °C, pH 10, aqueous buffer, pH 10.0 (Alkaline borate buffer)
[5] = ethanol/propylene glycol (50:50, v/v), 25 °C, organic solvent or mixture, Ethanol/Propylene glycol (50:50, v/v)
[6] = phosphate buffer of pH 6.8, 25 °C, pH 6.8, aqueous buffer, pH 6.8 (Phosphate buffer)
[7] = phosphate buffer of pH 7.4, 25 °C, pH 7.4, aqueous buffer, pH 7.4 Phosphate buffer
[8] = phosphate buffer, 25 °C, pH 7.4, aqueous buffer, pH 7.4 Phosphate buffer
[9] = purified water, 25 °C, water, Purified water

## C[C@H](OP(=O)(N1CC1)N1CC1)c1ccc([N+](=O)[O-])c(Oc2cccc(C(=O)N(C)C)c2)c1 [AST-3424, (S)-1-(3-(3-N,N-Dimethylaminocarbonyl)phenoxy-4-nitrophenyl)-1-ethyl-N,N′-bis(ethylene) phosphoramidate]
[1]
  Solubility, in words: good solubility
[2]; 1:1 solution of ethanol and propylene glycol
  Time the API is stable in solution: at least 72 hours
[2]; Acetate buffer of pH 4.5, 0 h
  Content: 0.673 mg/mL
[2]; Acetate buffer of pH 4.5, 1 h
  Content: 0.413 mg/mL
[2]; Acetate buffer of pH 4.5, 4 h
  Content: 0.218 mg/mL
[2]; Acetate buffer of pH 4.5, 8 h
  Content: 0.093 mg/mL
[2]; Acetate buffer of pH 4.5, 24 h
  Content: 0.013 mg/mL
[2]; Alkaline borate buffer of pH 10.0, 0 h
  Content: 1.265 mg/mL
[2]; Alkaline borate buffer of pH 10.0, 1 h
  Content: 1.165 mg/mL
[2]; Alkaline borate buffer of pH 10.0, 4 h
  Content: 1.261 mg/mL
[2]; Alkaline borate buffer of pH 10.0, 8 h
  Content: 1.258 mg/mL
[2]; Alkaline borate buffer of pH 10.0, 24 h
  Content: 1.261 mg/mL
[2]; Alkaline borate buffer of pH 10.0, 48 h
  Content: 1.257 mg/mL
[2]; Alkaline borate buffer of pH 10.0, 72 h
  Content: 1.242 mg/mL
[2]; Ethanol/Propylene glycol (50:50, v/v), 0 h
  Content: 1.295 mg/mL
[2]; Ethanol/Propylene glycol (50:50, v/v), 1 h
  Content: 1.287 mg/mL
[2]; Ethanol/Propylene glycol (50:50, v/v), 4 h
  Content: 1.287 mg/mL
[2]; Ethanol/Propylene glycol (50:50, v/v), 8 h
  Content: 1.287 mg/mL
[2]; Ethanol/Propylene glycol (50:50, v/v), 24 h
  Content: 1.302 mg/mL
[2]; Ethanol/Propylene glycol (50:50, v/v), 48 h
  Content: 1.284 mg/mL
[2]; Ethanol/Propylene glycol (50:50, v/v), 72 h
  Content: 1.275 mg/mL
[2]; Ethanol, 0 h
  Content: 1.238 mg/mL
[2]; Ethanol, 1 h
  Content: 1.280 mg/mL
[2]; Ethanol, 4 h
  Content: 1.246 mg/mL
[2]; Ethanol, 8 h
  Content: 1.240 mg/mL
[2]; Ethanol, 24 h
  Content: 1.240 mg/mL
[2]; Ethanol, 48 h
  Content: 1.278 mg/mL
[2]; Ethanol, 72 h
  Content: 1.236 mg/mL
[2]; Phosphate buffer of pH 6.8, 0 h
  Content: 1.202 mg/mL
[2]; Phosphate buffer of pH 6.8, 1 h
  Content: 1.200 mg/mL
[2]; Phosphate buffer of pH 6.8, 4 h
  Content: 1.193 mg/mL
[2]; Phosphate buffer of pH 6.8, 8 h
  Content: 1.185 mg/mL
[2]; Phosphate buffer of pH 6.8, 24 h
  Content: 1.168 mg/mL
[2]; Phosphate buffer of pH 6.8, 48 h
  Content: 1.145 mg/mL
[2]; Phosphate buffer of pH 6.8, 72 h
  Content: 1.102 mg/mL
[2]; Phosphate buffer of pH 7.4, 0 h
  Content: 1.267 mg/mL
[2]; Phosphate buffer of pH 7.4, 1 h
  Content: 1.266 mg/mL
[2]; Phosphate buffer of pH 7.4, 4 h
  Content: 1.266 mg/mL
[2]; Phosphate buffer of pH 7.4, 8 h
  Content: 1.262 mg/mL
[2]; Phosphate buffer of pH 7.4, 24 h
  Content: 1.262 mg/mL
[2]; Phosphate buffer of pH 7.4, 48 h
  Content: 1.249 mg/mL
[2]; Phosphate buffer of pH 7.4, 72 h
  Content: 1.228 mg/mL
[2]; Purified water, 0 h
  Content: 1.186 mg/mL
[2]; Purified water, 1 h
  Content: 1.126 mg/mL
[2]; Purified water, 4 h
  Content: 1.056 mg/mL
[2]; Purified water, 8 h
  Content: 1.005 mg/mL
[2]; Purified water, 24 h
  Content: 0.918 mg/mL
[2]; Purified water, 48 h
  Content: 0.860 mg/mL
[2]; Purified water, 72 h
  Content: 0.810 mg/mL
[2]; acetate buffer of pH 4.5
  Solution stability, in words: unstable; also recorded: very unstable
[2]; buffer of pH 7.4
  Time the API is stable in solution: at least 72 hours
[2]; buffer of pH 10.0
  Time the API is stable in solution: at least 72 hours
[2]; ethanol
  Time the API is stable in solution: at least 72 hours
[2]; phosphate buffer of pH 6.8
  Solution stability, in words: unstable; also recorded: less stable
[2]; phosphate buffer of pH 7.4
  Solution stability, in words: stable
[2]; purified water
  Solution stability, in words: unstable; also recorded: less stable
[2]; solution of pH 6.8
  Time the API is stable in solution: at least 24 hours
[3]; Purified water
  Solubility, descriptive terms: Sparingly soluble
[3]; [4]
  solubility: ~23 mg/mL (≈ 50 mM)
  solubility at 1 h: 23.5 mg/mL (≈ 51 mM)
  solubility at 4 h: 23.6 mg/mL (≈ 51.2 mM)
  solubility at 8 h: 23.5 mg/mL (≈ 51 mM)
  solubility at 24 h: 23.5 mg/mL (≈ 51 mM)
  solubility at 48 h: 23.7 mg/mL (≈ 51.4 mM)
[3]; ethanol/propylene glycol (50:50, v/v)
  Solubility, descriptive terms: easily soluble; also recorded: Freely soluble (FS)
[3]; [5]
  solubility at 1 h: 271 mg/mL (≈ 589 mM)
  solubility at 4 h: 302 mg/mL (≈ 657 mM)
  solubility at 8 h: 301 mg/mL (≈ 654 mM)
  solubility at 24 h: 299 mg/mL (≈ 649 mM)
  solubility at 48 h: 274 mg/mL (≈ 595 mM)
[3]; ethanol/propylene glycol (50:50, v/v), 25 °C, organic solvent or mixture, ethanol/propylene glycol (50:50, v/v)
  solubility: > 270 mg/mL
[3]; pH 6.8 (Phosphate buffer)
  Solubility, descriptive terms: Sparingly soluble
[3]; pH 7.4 (Phosphate buffer)
  Solubility, descriptive terms: Sparingly soluble
[3]; pH 10.0 (Alkaline borate buffer)
  Solubility, descriptive terms: Sparingly soluble
[3]; [6]
  solubility at 1 h: 23 mg/mL (≈ 50 mM)
  solubility at 4 h: 22.9 mg/mL (≈ 49.8 mM)
  solubility at 8 h: 23 mg/mL (≈ 50 mM)
  solubility at 24 h: 22.6 mg/mL (≈ 49.1 mM)
  solubility at 48 h: 22.1 mg/mL (≈ 47.9 mM)
[3]; [7]
  solubility at 1 h: 23.7 mg/mL (≈ 51.4 mM)
  solubility at 4 h: 23.5 mg/mL (≈ 51 mM)
  solubility at 48 h: 23.4 mg/mL (≈ 50.8 mM)
[3]; phosphate buffer, 25 °C, pH 6.8, aqueous buffer, pH 6.8 (Phosphate buffer)
  solubility: ~23 mg/mL (≈ 50 mM)
[3]; phosphate buffer, 25 °C, pH 7.4, aqueous buffer, pH 7.4 (Phosphate buffer)
  solubility: ~23 mg/mL (≈ 50 mM)
[3]; [8]
  solubility at 8 h: 23.6 mg/mL (≈ 51.2 mM)
  solubility at 24 h: 23.7 mg/mL (≈ 51.4 mM)
[3]; purified water, 25 °C, water
  solubility: ~20 mg/mL (≈ 43.4 mM)
[3]; [9]
  solubility at 1 h: 20.9 mg/mL (≈ 45.4 mM)
  solubility at 4 h: 20.1 mg/mL (≈ 43.7 mM)
  solubility at 8 h: 19.7 mg/mL (≈ 42.7 mM)
  solubility at 24 h: 18.8 mg/mL (≈ 40.9 mM)
  solubility at 48 h: 17.8 mg/mL (≈ 38.6 mM)
